Laboratory results from PubChem BioAssay (NCI).
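Interpolation was linear, between the two tested concentrations surrounding the appropriate level; five concentrations were tested over 48 hours in 96-well plates. GI50 is the concentration that inhibits growth by half. TGI denotes the concentration required for complete inhibition of growth.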

Tested on: UO-31 renal
Test: inhibition of tumour cell growth, NCI panel, 48 h

| SMILES | TGI [µM] | GI50 [µM] |
| --- | --- | --- |
| CC(=O)OC1C(Oc2c(C)cc3c(c2O)[C@@H](C)CC[C@@H]3[C@@H](C)CCC=C(C)C)OCC(O)C1O (stereo not given in full) | 32.2 |  |
| Cc1ccc2c(c1)CC1(Cc3ccccc3C1=O)C2=O (stereo not given) | > 100 |  |
| Cc1sc2nc(-c3cccc([N+](=O)[O-])c3)c(/C=N/N=C(N)N)n2c1C | 3.13 |  |
| CN1CCN(CCCNc2nc3ccc(Oc4ccc(NC(=O)Nc5cc(C(F)(F)F)ccc5F)cc4)cc3[nH]2)CC1 | > 25 | > 25 |
| CCO/C=N\C1=C(C#N)SC2=N/C(=C\c3ccc(OC)cc3)C(=O)N21 | > 100 |  |

Tested on: HCC-2998 colon
Test: inhibition of tumour cell growth, NCI panel, 48 h

| SMILES | TGI [µM] | GI50 [µM] |
| --- | --- | --- |
| Cc1ccc2c(c1)CC1(Cc3ccccc3C1=O)C2=O (stereo not given) | > 100 |  |
| Cc1sc2nc(-c3cccc([N+](=O)[O-])c3)c(/C=N/N=C(N)N)n2c1C | 2.61 |  |
| CSc1cc(Cl)c(C)cc1S(=O)(=O)NC(=O)NNc1cccc(C(F)(F)F)n1 | > 100 |  |
| COc1cccc2c1C(=O)c1c(O)c3c(c(O)c1C2=O)CC(O)(C(=O)CO)CC3OC1CC(N2CCOCC2C#N)C(O)C(C)O1 (stereo not given) | < 0.0001 |  |
| CN1CCN(CCCNc2nc3ccc(Oc4ccc(NC(=O)Nc5cc(C(F)(F)F)ccc5F)cc4)cc3[nH]2)CC1 | 8.1 | 4.35 |
| CCO/C=N\C1=C(C#N)SC2=N/C(=C\c3ccc(OC)cc3)C(=O)N21 | > 100 |  |

Tested on: UACC-62 melanoma
Test: inhibition of tumour cell growth, NCI panel, 48 h

| SMILES | TGI [µM] | GI50 [µM] |
| --- | --- | --- |
| CC(=O)OC1C(Oc2c(C)cc3c(c2O)[C@@H](C)CC[C@@H]3[C@@H](C)CCC=C(C)C)OCC(O)C1O (stereo not given in full) | 34.9 |  |
| Cc1ccc2c(c1)CC1(Cc3ccccc3C1=O)C2=O (stereo not given) | > 100 |  |
| COc1cccc2c1C(=O)c1c(O)c3c(c(O)c1C2=O)CC(O)(C(=O)CO)CC3OC1CC(N2CCOCC2C#N)C(O)C(C)O1 (stereo not given) | < 0.0001 |  |
| CN1CCN(CCCNc2nc3ccc(Oc4ccc(NC(=O)Nc5cc(C(F)(F)F)ccc5F)cc4)cc3[nH]2)CC1 | 7.66 | 4.1 |

Tested on: SF-539 CNS
Test: inhibition of tumour cell growth, NCI panel, 48 h

| SMILES | TGI [µM] | GI50 [µM] |
| --- | --- | --- |
| CC(=O)OC1C(Oc2c(C)cc3c(c2O)[C@@H](C)CC[C@@H]3[C@@H](C)CCC=C(C)C)OCC(O)C1O (stereo not given in full) | 34.7 |  |
| Cc1ccc2c(c1)CC1(Cc3ccccc3C1=O)C2=O (stereo not given) | > 100 |  |
| Cc1sc2nc(-c3cccc([N+](=O)[O-])c3)c(/C=N/N=C(N)N)n2c1C | 3.72 |  |
| CSc1cc(Cl)c(C)cc1S(=O)(=O)NC(=O)NNc1cccc(C(F)(F)F)n1 | > 100 |  |
| COc1cccc2c1C(=O)c1c(O)c3c(c(O)c1C2=O)CC(O)(C(=O)CO)CC3OC1CC(N2CCOCC2C#N)C(O)C(C)O1 (stereo not given) | < 0.0001 |  |
| CN1CCN(CCCNc2nc3ccc(Oc4ccc(NC(=O)Nc5cc(C(F)(F)F)ccc5F)cc4)cc3[nH]2)CC1 | 8.52 | 4.22 |
| CCO/C=N\C1=C(C#N)SC2=N/C(=C\c3ccc(OC)cc3)C(=O)N21 | > 100 |  |

Tested on: BT-549 breast
Test: inhibition of tumour cell growth, NCI panel, 48 h

| SMILES | TGI [µM] | GI50 [µM] |
| --- | --- | --- |
| Cc1sc2nc(-c3cccc([N+](=O)[O-])c3)c(/C=N/N=C(N)N)n2c1C | 2.83 |  |
| COc1cccc2c1C(=O)c1c(O)c3c(c(O)c1C2=O)CC(O)(C(=O)CO)CC3OC1CC(N2CCOCC2C#N)C(O)C(C)O1 (stereo not given) | 0.00113 |  |
| CN1CCN(CCCNc2nc3ccc(Oc4ccc(NC(=O)Nc5cc(C(F)(F)F)ccc5F)cc4)cc3[nH]2)CC1 | 8.04 | 4.23 |

Tested on: SK-MEL-2 melanoma
Test: inhibition of tumour cell growth, NCI panel, 48 h

| SMILES | TGI [µM] | GI50 [µM] |
| --- | --- | --- |
| CC(=O)OC1C(Oc2c(C)cc3c(c2O)[C@@H](C)CC[C@@H]3[C@@H](C)CCC=C(C)C)OCC(O)C1O (stereo not given in full) | 45.2 |  |
| Cc1sc2nc(-c3cccc([N+](=O)[O-])c3)c(/C=N/N=C(N)N)n2c1C | 3.09 |  |
| CSc1cc(Cl)c(C)cc1S(=O)(=O)NC(=O)NNc1cccc(C(F)(F)F)n1 | > 100 |  |
| COc1cccc2c1C(=O)c1c(O)c3c(c(O)c1C2=O)CC(O)(C(=O)CO)CC3OC1CC(N2CCOCC2C#N)C(O)C(C)O1 (stereo not given) | < 0.0001 |  |
| CN1CCN(CCCNc2nc3ccc(Oc4ccc(NC(=O)Nc5cc(C(F)(F)F)ccc5F)cc4)cc3[nH]2)CC1 | 8.66 | 4.64 |

Tested on: SK-MEL-5 melanoma
Test: inhibition of tumour cell growth, NCI panel, 48 h

| SMILES | TGI [µM] | GI50 [µM] |
| --- | --- | --- |
| CC(=O)OC1C(Oc2c(C)cc3c(c2O)[C@@H](C)CC[C@@H]3[C@@H](C)CCC=C(C)C)OCC(O)C1O (stereo not given in full) | 32.1 |  |
| Cc1ccc2c(c1)CC1(Cc3ccccc3C1=O)C2=O (stereo not given) | > 100 |  |
| Cc1sc2nc(-c3cccc([N+](=O)[O-])c3)c(/C=N/N=C(N)N)n2c1C | 3.03 |  |
| CSc1cc(Cl)c(C)cc1S(=O)(=O)NC(=O)NNc1cccc(C(F)(F)F)n1 | > 100 |  |
| CN1CCN(CCCNc2nc3ccc(Oc4ccc(NC(=O)Nc5cc(C(F)(F)F)ccc5F)cc4)cc3[nH]2)CC1 | 7.01 | 3.66 |
| CCO/C=N\C1=C(C#N)SC2=N/C(=C\c3ccc(OC)cc3)C(=O)N21 | > 100 |  |

Tested on: HOP-62 NSCLC
Test: inhibition of tumour cell growth, NCI panel, 48 h

| SMILES | TGI [µM] | GI50 [µM] |
| --- | --- | --- |
| CC(=O)OC1C(Oc2c(C)cc3c(c2O)[C@@H](C)CC[C@@H]3[C@@H](C)CCC=C(C)C)OCC(O)C1O (stereo not given in full) | 32.2 |  |
| Cc1ccc2c(c1)CC1(Cc3ccccc3C1=O)C2=O (stereo not given) | > 100 |  |
| Cc1sc2nc(-c3cccc([N+](=O)[O-])c3)c(/C=N/N=C(N)N)n2c1C | 3.1 |  |
| CSc1cc(Cl)c(C)cc1S(=O)(=O)NC(=O)NNc1cccc(C(F)(F)F)n1 | > 100 |  |
| COc1cccc2c1C(=O)c1c(O)c3c(c(O)c1C2=O)CC(O)(C(=O)CO)CC3OC1CC(N2CCOCC2C#N)C(O)C(C)O1 (stereo not given) | < 0.0001 |  |
| CN1CCN(CCCNc2nc3ccc(Oc4ccc(NC(=O)Nc5cc(C(F)(F)F)ccc5F)cc4)cc3[nH]2)CC1 | 7.25 | 3.84 |
